Results published in patent publication US11274073B2, “TRPV1 modulator compounds” (ANTALGENICS, S.L., priority 2017, dated 2022).

Key:
rat TRPV1 channel [1] = molecular target: T1, rat TRPV1 channel (Rattus norvegicus, UniProt O35433); experiment: Calcium microfluorometry assay on TRPV1-SH-SY5Y cells, single concentration 10 μM; type: cell-based; details: for TRPV1 activation at 10 μM (% ± SD): compound 10 μM, Fluo-4 NW fluorescence, Cap (10 μM capsaicin) = 100%; for TRPV1 blockage at 10 μM (% ± SD): compound 10 μM before stimulation with 10 μM capsaicin, RR (10 μM Ruthenium Red) = 100%
T1 construct: expressed in transfected cells; host or cells: SH-SY5Y (human neuroblastoma) stably expressing rat TRPV1, under puromycin selection
T1 sequence (O35433 whole entry): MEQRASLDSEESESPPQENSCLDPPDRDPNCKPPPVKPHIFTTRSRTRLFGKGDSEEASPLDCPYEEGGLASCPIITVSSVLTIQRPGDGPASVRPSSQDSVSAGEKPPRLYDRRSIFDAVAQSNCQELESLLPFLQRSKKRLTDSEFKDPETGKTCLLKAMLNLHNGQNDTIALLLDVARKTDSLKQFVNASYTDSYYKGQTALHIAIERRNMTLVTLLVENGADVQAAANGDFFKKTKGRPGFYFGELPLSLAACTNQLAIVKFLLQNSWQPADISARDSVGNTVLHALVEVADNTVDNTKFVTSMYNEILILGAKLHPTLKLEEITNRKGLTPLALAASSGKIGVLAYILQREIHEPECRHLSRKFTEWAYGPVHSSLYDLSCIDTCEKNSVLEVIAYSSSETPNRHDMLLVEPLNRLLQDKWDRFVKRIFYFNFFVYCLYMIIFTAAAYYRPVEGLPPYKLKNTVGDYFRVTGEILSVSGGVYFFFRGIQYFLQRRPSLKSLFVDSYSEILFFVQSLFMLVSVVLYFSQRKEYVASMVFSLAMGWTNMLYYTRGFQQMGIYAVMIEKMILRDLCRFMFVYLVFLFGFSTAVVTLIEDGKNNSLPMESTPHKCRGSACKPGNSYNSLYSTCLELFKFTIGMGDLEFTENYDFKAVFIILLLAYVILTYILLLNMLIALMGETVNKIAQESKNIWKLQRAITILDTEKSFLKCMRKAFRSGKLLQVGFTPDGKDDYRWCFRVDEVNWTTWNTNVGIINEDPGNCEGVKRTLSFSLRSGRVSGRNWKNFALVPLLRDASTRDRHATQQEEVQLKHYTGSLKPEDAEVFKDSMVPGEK
Procedure: (§1) The activity of the compounds was determined on TRPV1 expressing cells (TRPV1-SH-SY5Y) by Calcium microfluorometry assay.
(§2) SH-SY5Y cells stably expressing rat TRPV1 channel (SH-SY5Y-TRPV1) were grown in Earle's minimum essential medium (MEM) containing 10% (v/v) of FCS, 1% nonessential amino acids, 2 mM L-glutamine, 100 μg/ml streptomycin, 100 U/ml penicillin, and 0.4 μg/ml puromycin in a humidity-controlled incubator with 5% CO2 and at 37° C. For fluorescence assays, cells expressing TRPV1 channel (TRPV1-SH-SY5Y) were seeded in 96-well plates (Corning Incorporated, Corning, N.Y.) at a cell density of 40,000 cells 2 days before treatment. The day of treatment the medium was replaced with 100 μL of the dye loading solution Fluo-4 NW supplemented with probenecid 2.5 mM. After incubation at 37° C. in a humidified atmosphere of 5% CO2 for 60 minutes, plates were transferred to a fluorescence plate reader (Polastar Omega BMG Labtech). The baseline fluorescence of Fluo-4 dye ([…]) was recorded for 4 cycles. […] The antagonist (10 μM Ruthenium Red for TRPV1) was added for the blockade. The changes in fluorescence intensity were recorded during 10 cycles more.

rat TRPV1 channel [2] = molecular target: T1, rat TRPV1 channel; experiment: Dose response measurements (EC50/IC50), calcium microfluorometry on TRPV1-SH-SY5Y cells; type: cell-based; details: n=3 in 3 independent experiments; for EC50: TRPV1 activation; for IC50: TRPV1 blockage
Procedure: as §1, §2
Normalized responses (%) versus log [μM] were adjusted to a non-linear fit with variable slope, a four-parameter dose-response curve Y=100/(1+10^((LogEC50−X)*HillSlope)) where […] or just dose-response curve Y=100/(1+10^((LogEC50−X))). EC50 are expressed with 95% confident interval followed by r^2 for regression adjustment. All data are expressed as mean±standard error of the mean […]. Each condition was assessed by triplicate (n=3) in 3 independent experiments (N=3).

C57-mice = experiment: CFA-induced paw inflammation model of inflammatory pain, thermal hyperalgesia (paw withdrawal latency); type: in vivo; details: 24 h after CFA
Procedure: Data are given as mean±SEM n=6. 2-way ANOVA with Bonferroni post hoc test. *P<0.05; **P<0.01, ***P<0.001, […].
One of the compounds with higher potency (Ex-37) was selected to be tested in a model of inflammatory pain. C57-mice (≈30 g) were used for the study. C57BL/6 were obtained from Janvier, France. Complete Freund's adjuvant (CFA) emulsion (1:1 oil/saline, 0.5 mg/ml) was injected into the plantar surface (10 μl) of the right hind paw (Garcia-Martinez et al., 2006). 24 h after CFA injection, compound Ex-37 was administered intravenously (at 1 mg/kg, 3 mg/kg or 10 mg/kg) or intraplantar (at 10 mg/kg, 30 mg/kg or 100 mg/kg)) on the right hind paw. Thermal hyperalgesia was monitored 24 h after CFA injection and up to 2 h after administering the compound with an Ugo Basile Dynamic Plantar Aesthesiometer as reported previously (Garcia-Martinez et al., 2006). In brief, mice were habituated to an apparatus consisting of individual Perspex boxes on an elevated glass table. A mobile radiant heat source was located under the table and focused on the hind paw. Paw withdrawal latencies were defined as the time taken by the mouse to remove its hind paw from the heat source. A cutoff point of 25 s was set to prevent tissue damage.

| SMILES | TRPV1 activation at 10 μM (% ± SD) (rat TRPV1 channel [1]) [%] | EC50 (rat TRPV1 channel [2]) [µM] | TRPV1 blockage at 10 μM (% ± SD) (rat TRPV1 channel [1]) [%] | also measured |
| --- | --- | --- | --- | --- |
| CC(C)=CCC/C(C)=C/C(=O)OCC(=O)NCc1ccc(O)c(O)c1 [Ex-54, (E)-2-((3,4-dihydroxybenzyl)amino)-2-oxoethyl 3,7-dimethylocta-2,6-dienoate] | 77.42 ± 5.17 | 0.11 ± 0.02 |  |  |
| CC(C)=CCCC(C)=CCC/C(C)=C/CC/C=C(\C)CC/C=C(\C)CCC(=O)OCC(=O)NCc1ccc(O)c(O)c1 (stereo in doubt) [Ex-56, (4E,8E,12E,16E)-2-((3,4-dihydroxybenzyl)amino)-2-oxoethyl 4,8,13,17,21-pentamethyldocosa-4,8,12,16,20-pentaenoate] | 83.71 ± 6.00 | 0.015 ± 0.02 |  |  |
| COc1cc(CNC(=O)COC(=O)CC/C(C)=C/CC/C(C)=C/CC/C=C(\C)CCC=C(C)CCC=C(C)C)ccc1O (stereo in doubt) [Ex-52, (4E,8E,12E,16E)-2-((4-hydroxy-3-methoxybenzyl)-amino)-2-oxoethyl 4,8,13, 17,21-pentamethyldocosa-4,8,12,16,20-pentaenoate] | 79.31 ± 6.41 | 0.04 ± 0.008 |  |  |
| COc1cc(CNC(=O)COC(=O)/C=C(\C)CCC=C(C)C)ccc1O [Ex-32, (E)-2-((4-hydroxy-3-methoxy-benzyl)amino)-2-oxoethyl 3,7-dimethylocta-2,6-dienoate] | 75.90 ± 2.49 | 0.28 ± 0.08 |  |  |
| CCCCCCCCCCCC(=O)OCC(=O)NCc1cc(OC)c(O)cc1I [Ex-37, 2-((4-hydroxy-2-iodo-5-methoxybenzyl)amino)-2-oxoethyl dodecanoate] |  |  | 43.18 ± 10.07 | IC50 (rat TRPV1 channel [2]): 0.86 ± 0.51 µM; antinociceptive effect in the thermal hyperalgesia test, intraplantar (C57-mice; intraplantar at 10, 30 or 100 mg/kg on the right hind paw, FIG. 2): showed antinociceptive effects; antinociceptive effect in the thermal hyperalgesia test, intravenous (C57-mice; intravenously at 1, 3 or 10 mg/kg, FIG. 1): showed antinociceptive effects |
| CC(C)=CCC/C(C)=C/C(=O)OCC(=O)NCc1cc(O)c(O)cc1I [Ex-55, (E)-2-((4,5-dihydroxy-2-iodobenzyl)amino)-2-oxoethyl 3,7-dimethylocta-2,6-dienoate] |  |  | 104.22 ± 12.65 | IC50 (rat TRPV1 channel [2]): 6.82 ± 1.38 µM |
| CCCCCCCCCCCC(=O)OCC(=O)NCc1ccc(O)c(OC)c1 [Ex-36, 2-((4-hydroxy-3-methoxy-benzyl)amino)-2-oxoethyl dodecanoate] | 74.80 ± 8.30 | 0.08 ± 0.03 |  |  |
| CCCCCCCC/C=C\CCCCCCCCCCCC(=O)OCC(=O)NCc1ccc(O)c(OC)c1 [Ex-48, (Z)-2-((4-hydroxy-3-methoxybenzyl)amino)-2-oxoethyl docos-13-enoate] | 47.40 ± 14.56 |  |  |  |
| CCCCCCCCCCCCCCC(=O)OCC(=O)NCc1ccc(O)c(OC)c1 [Ex-38, 2-((4-hydroxy-3-methoxy-benzyl)amino)-2-oxoethyl pentadecanoate] | 75.96 ± 9.86 |  |  |  |
| CCCCCCCC/C=C\CCCCCCCCCCCC(=O)OCC(=O)NCc1cc(OC)c(O)cc1I [Ex-49, (Z)-2-((4-hydroxy-2-iodo-5-methoxybenzyl)amino)-2-oxoethyl docos-13-enoate] |  |  | 34.94 ± 5.51 |  |
